# Read-outs that look alike come from different tables or passages of the source.
# Legend:
# mice [1] = assay: Psychotropic activity test: motor activity; format: in vivo; conditions: intraperitoneally, dose 1/20 of LD
# brain synaptosomes = assay: Cholesterol content in brain synaptosomes, old rats; format: in vivo; conditions: for Cholesterol content of brain synaptosomes, old rats: 20 days course; for Cholesterol content in synaptosomes (% from total lipid content): old rats (18 month), 20 days application
# rats [2] = assay: Passive avoidance test in normal rats, 50% acquisition; format: in vivo; conditions: Rattus norvegicus, ip, 20 min, read-out: Increase of the number of correct trails (% to control). Passive avoidance test (rats)
# Outline: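 Unbred rats (180–200 g) were kept at 21–22 °C on a 12-h light cycle with free food and water. Passive avoidance was run under 50% acquisition conditions within 24 h after the last dose. Effect was scored as the rise in the proportion of learned animals versus controls.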
# mice [3] = assay: Step-down test, scopolamine induced amnesia; format: in vivo
# Procedure: (§1) Psychoneurotropic activity of the declared compounds and their influence on learning and memory were observed using unbred male (18-20 g) mice and 180-200 g) rats, held at standard conditions (room temperature 21°-22° C., 12-hours lighting schedule, food and water ad libitum).
# [4] = system: membranes of brain synaptosomes; assay: Microviscosity of brain synaptosome membranes, old rats; format: in vivo; conditions: old rats (18 month), 20 days application
# Procedure: Microviscosity of membranes of brain synaptosomes was studied with the use of molecular probe pirren. Brain tissue homogenization and preparation of synaptosomes were performed by the method of De Robertis.
# old rats = assay: Passive avoidance test in old rats; format: in vivo; conditions: for Passive avoidance latency in 7 days after training: old rats (18 month), 20 days application, 1 mg/kg (piracetam 250 mg/kg)
# Procedure: The influence of drugs on reflex conditioning in rats was studied by the passive avoidance test in conditions of 50% acquisition. The effect of the compound was estimated by the increase of the relative number of learned animals with respect to that of control group. […] The other reference drug--noothropic agent piracetam--was given in the dose 250 mg/kg 60 min before training. Amnestic syndrome was stimulated by 20 days application of Sc at the daily dose of 1 mg/kg intraperitoneally. […] The passive avoidance test was performed within 24 hours after the last application of test preparations.
# Improvement of animal performance was accompanied by the normalizing of brain synaptosomes microviscosity under the action of all the substances tested. […] The latter observation indicates to the possible interference of amiridine and substance Vo into the processes of atherogenesis in old animals.
# [5] = system: membranes of brain synaptosomes; assay: Microviscosity of brain synaptosome membranes, amnestic syndrome model; format: in vivo, rats; conditions: rats; scopolamine 20 days, then drug 10 days; brain synaptosomes
# mice [6] = assay: Psychotropic activity test: arecoline induced hyperkynesis; format: in vivo; conditions: intraperitoneally, dose 1/20 of LD
# in vivo = conditions: for LD50: in vivo, ip
# Procedure: as §1
# Acute toxicity was studied by the method of Kerber with intra peritoneal drug injection.
# rats [7] = assay: Passive avoidance test on the model of amnestic syndrome (multiple scopolamine injection); format: in vivo
# Procedure: The influence of drugs on reflex conditioning in rats was studied by the passive avoidance test in conditions of 50% acquisition. The effect of the compound was estimated by the increase of the relative number of learned animals with respect to that of control group. […] The passive avoidance test was performed within 24 hours after the last application of test preparations.
# K channels = assay: Ionic permeabilities of excitable membranes, voltage clamp in the Ranvier node; format: cell-based, frog
# rat adipocytes [8] = assay: Lipid content in incubation medium after incubation of adipocytes; format: cell-based; conditions: incubation medium; Table 12
# Procedure: Lipid regulative activity of the declared compounds--derivatives of 9-amino acridine--were evaluated in vitro[…] using rat adipocytes. Adipocytes were separated from adipose tissue of testis appendages of adult male rats. Lipid composition analysis was performed by the method of thin-layer chromatography.
# Quantitative analysis of phospholipids (PL), mono- and diacylglycerides (MDG), triacylglycerides (TG), free fatty acids (FFA), free cholesterol (FCL), and methyl esters of fatty acids (MEFA) was performed by the method of spectrophotometry.
# rat adipocytes [9] = assay: Lipid composition of adipocytes after incubation with compounds; format: cell-based
# Outline: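 Adipocytes isolated from testis-appendage adipose tissue of adult male rats and incubated with 9-aminoacridine derivatives. Lipids separated by thin-layer chromatography. PL, MDG, TG, FFA, FCL and MEFA quantified spectrophotometrically.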
# [10] = intraperitoneal injection, Table 5, read-out: LD50 (mg/kg) by Kerber
# [11] = rats, scopolamine 1 mg/kg 20 days, then drug 10 days (1 mg/kg; piracetam 250 mg/kg)
# [12] = distribution between cells and incubation medium, Table 13
compound,measurement,setting,value
"Nc1c2c(nc3c1CCC3)CCCC2 [Amiridine, amiridine, reference compound]",Motor activity increment (% to control),mice [1],45 % to control
same,"Cholesterol content of brain synaptosomes, old rats",brain synaptosomes,normalized the cholesterol content of brain synaptosomes
same,Cholesterol content in synaptosomes (% from total lipid content),brain synaptosomes,33.2 ± 0.8 % from total lipid content
same,change in vivo at 0.1 mg/kg,"rats [2]; rats, 0.1 mg/kg i.p. 20 min before training, piracetam 250 mg/kg 60 min before training",70%
same,Antiamnestic activity in Step-down test (% of mice with latency > cut off),mice [3],33 % of mice
same,Microviscosity changes (% to control),[4],101.7 % to control
same,Passive avoidance latency in 7 days after training,old rats,116.1 ± 16.9 s
same,Microviscosity changes in % to control,[5],105.0 % to control
same,Increase of duration of arecoline induced hyperkynesis (% to control),mice [6],100 % to control
same,LD50,in vivo; [10],52 ± 3.4 mg/kg
same,LD50,in vivo; read-out: LD,35 mg/kg
same,Passive avoidance latency,rats [7]; [11],149.0 ± 11.7 s
"Nc1c2c(nc3ccccc13)CCCC2 [Tacrine, tacrine, reference compound]",Motor activity increment (% to control),mice [1],0 % to control
same,Cholesterol content in synaptosomes (% from total lipid content),brain synaptosomes,39.7 ± 1.4 % from total lipid content
same,change in vivo at 0.1 mg/kg,rats [2],25%
same,Antiamnestic activity in Step-down test (% of mice with latency > cut off),mice [3],33 % of mice
same,Microviscosity changes (% to control),[4],101.4 % to control
same,Passive avoidance latency in 7 days after training,old rats,163.4 ± 16.5 s
same,Microviscosity changes in % to control,[5],97.2 % to control
same,Increase of duration of arecoline induced hyperkynesis (% to control),mice [6],88 % to control
same,LD50,in vivo; [10],35.5 ± 1.8 mg/kg
same,LD50,in vivo; read-out: LD,52 mg/kg
same,Passive avoidance latency,rats [7]; 1 mg/kg,169.0 ± 14.8 s
CCCCNc1c2c(nc3ccccc13)CC(C)(C)CC2=O [Vp],Motor activity increment (% to control),mice [1],69 % to control
same,"Cholesterol content of brain synaptosomes, old rats",brain synaptosomes,normalized the cholesterol content of brain synaptosomes
same,Cholesterol content in synaptosomes (% from total lipid content),brain synaptosomes,30.1 ± 2.4 % from total lipid content
same,Capability to induce the shift of potassium permeability voltage dependency,K channels,most pronounced capability to induce the shift of potassium permeability voltage dependency
same,change in vivo at 0.1 mg/kg,rats [2],25%
same,Antiamnestic activity in Step-down test,mice [3],"pronounced antiatonestic activity, comparable with that of amiridine and tacrine"
same,Antiamnestic activity in Step-down test (% of mice with latency > cut off),mice [3],25 % of mice
same,Microviscosity changes (% to control),[4],97.9 % to control
same,Performance of old rats in passive avoidance test,"old rats; 20 days course, age 18 months",improved performance of old rats (age 18 months) in passive avoidance test more significantly than in 6 month old adult rats
same,Passive avoidance latency in 7 days after training,old rats,169.4 ± 10.5 s
same,FFA/TG in incubation medium,rat adipocytes [8],0.92
same,PL/CL in incubation medium,rat adipocytes [8],0.65
same,PL/TG in incubation medium,rat adipocytes [8],0.52
same,Lipid-regulative effect compared with probucol,rat adipocytes [9],not inferior
same,FFA/TG in adipocytes,"rat adipocytes [9]; cells, Table 11",1.03
same,PL/CL in adipocytes,"rat adipocytes [9]; cells, Table 11",0.83
same,PL/TG in adipocytes,"rat adipocytes [9]; cells, Table 11",0.89
same,FFAc/FFAm,rat adipocytes [9]; [12],0.93
same,PLc/PLm,rat adipocytes [9]; [12],1.41
same,Microviscosity changes in % to control,[5],93.8 % to control
same,Increase of duration of arecoline induced hyperkynesis (% to control),mice [6],0 % to control
same,LD50 (mg/kg) by Kerber,"in vivo; intraperitoneal injection, Table 5",200.0 ± 21.9 mg/kg
same,Passive avoidance latency,rats [7]; [11],170.3 ± 14.9 s

# Source: patent US5672707A (priority 1991, dated 1997)
